Source: US20200239530A1, “COMPOUNDS AND METHODS OF MODULATING PROTEIN DEGRADATION” (Vividion Therapeutics, Inc., priority 2017, published 2020)

Legend:
[1] = target: Q9NXR7 (Homo sapiens, UniProt Q9NXR7); assay: Competitive cysteine profiling, probe competition (Table 2B); assay type: binding; parameters: endogenous in cells; settings: read-out: KB02_500 uM_percent_inhibition
From the text: (§1) The following 96-well sample prep protocol was used for sample preparation.

[2] = target: T1, ABCD3 ATP-binding cassette sub-family D member 3 (Homo sapiens, UniProt P28288); assay: Cysteine liganding, probe competition
T1 construct: Cells were resuspended in cold PBS on ice and sonicated with a probe sonicator to achieve lysis; endogenous in cells
Description: Cells were resuspended in cold PBS on ice and sonicated with a probe sonicator to achieve lysis. 200 μL of lysate containing 5 mg/ml proteome was treated with 2 μL of 100× compound stock in a 2-mL deep-well plate. The treated lysate was subsequently incubate at 25° C. for 1 hr with shaking at 600 rpm. The treated lysate was further incubated with 2 μL of 10 mM desthiobiotin iodoacetamide probe at 25° C. for 1 hr with shaking at 600 rpm. Next, the lysate was further treat with 20 μL of solution of PBS containing 11 mM MgSO4 and 2.5% Turbonuclease stock and incubated at 25° C. for 20 minutes with shaking at 600 rpm. 1.7 mL ice-cold acetone was added to each well and incubated at −20° C. for 2 hr, followed by max speed (4200 rpm) spin for 45 min. Acetone was then decanted and the plates were blotted to remove acetone. The plates were then dried in open air for 20 minutes. After drying, the plates were then covered with foil seal and stored at −80° C. overnight.
The next day, samples were re-suspended in 90 μL of solution of 9M urea, 50 mM ammonium bicarbonate and 10 mM DTT by incubating at 65C for 20 min with shaking at 1500 rpm. Next, samples were cooled to 37° C. and then 10 μL of 500 mM iodoacetamide solution (92.48 mg/ml) was added. The samples were then incubated at 37° C. for 30 min with shaking at 600 rpm. […]

[3] = target: T2, A6QL63 (Homo sapiens, UniProt A6QL63); assay: Competitive cysteine profiling, probe competition (Table 2B); assay type: binding; settings: read-out: KB02_100 uM_percent_inhibition
T2 construct: 200 μL of lysate containing 5 mg/ml proteome was treated with 2 μL of 100× compound stock; endogenous in cells
From the text: as §1

[4] = target: T3, Q8NF64 (Homo sapiens, UniProt Q8NF64); assay: Cysteine liganding, probe competition (Table 2B); assay type: binding; settings: one line per cysteine site, read-out: KB02_500 uM_percent_inhibition
T3 construct: 200 μL of lysate containing 5 mg/ml proteome was treated with 2 μL of 100× compound stock; endogenous in cells
From the text: as §1

[5] = target: Q99728 (Homo sapiens, UniProt Q99728); assay: Competitive cysteine profiling, probe competition (Table 2B); assay type: binding; parameters: endogenous in cells; settings: read-out: KB05_100 uM_percent_inhibition
From the text: as §1

[6] = target: T4, Q9ULT6 (Homo sapiens, UniProt Q9ULT6); assay: Cysteine liganding, probe competition (Table 2B); assay type: binding; settings: one line per cysteine site, read-out: KB05_500 uM_percent_inhibition
T4 construct: 200 μL of lysate containing 5 mg/ml proteome was treated with 2 μL of 100× compound stock; endogenous in cells
From the text: as §1

[7] = target: T5, Q9C0D3 (Homo sapiens, UniProt Q9C0D3); assay: Cysteine liganding, probe competition (Table 2B); assay type: binding; settings: one line per cysteine site, read-out: KB05_100 uM_percent_inhibition
T5 construct: endogenous in cells; whole-cell lysate
From the text: as §1

SMILES | inhibition at 500 µM [1] [%] | Liganded ([2]; ABCD3 Res# 472, uniprot P28288) | Liganded ([2]; ABCD3 Res# 477, uniprot P28288) | inhibition at 100 µM [3] [%] | inhibition at 500 µM [4] [%] | inhibition at 100 µM [5] [%] | inhibition at 500 µM [6] [%] | inhibition at 100 µM [7] [%]
COc1ccc2c(c1)CCCN2C(=O)CCl [KB02] | 50 | YES | YES | 9 | 46 | – | – | –
C=CC(=O)N(c1ccccc1)c1ccc(Br)cc1 [KB05] | – | – | – | – | – | 31 | 36 | 48
